Tests used:
[1] = preservative not tested (nt) in emulsion; cited from earlier work
[2] = Measurement of consistency (TAXT+ texture analyser); assay type: physicochemical; details: ingredient added to glycerol/Vaseline/liquid paraffin emulsion
Method: The measurement of consistency is carried out at room temperature (around 20° C.) in a 250 mL glass jar filled to 200 g. The measurement is performed using a TAXT+type texture analyser (Swantec). The consistency of the product is represented by the maximum resistance force of the probe in the product, which is directly proportional to the measured mass. The consistency value is expressed in g.
• 250 g glass jar filled to 200 g • P25 steel cylinder
• Pre-speed: 4 mm/s • Speed: 8 mm/s • Post-speed: 8 mm/s • Displacement: 20 mm • Triggering threshold: 5 g
Fill the container (glass jar) without introducing air into the product.
Tap the jar so as to pack down the cream and to obtain the smoothest surface possible.
Maintain the jar closed […] before carrying out the measurement.

| SMILES | Comments/other aspects [1] | Effect on the consistency and/or the viscosity of the emulsion [2] |
| --- | --- | --- |
| OB(O)O [Boric acid] | irritant | – |
| O.O.O.O.O.O.O.O.O.O.[Na+].[Na+].[O-]B1OB2OB([O-])OB(O1)O2 [Sodium borate] | irritant | – |
| CCCCC(O)CO (stereo not shown) [1,2 hexanediol] | – | fluidification of the formula |
| CCCCC(CC)COCC(O)CO (stereo not shown) [ethylhexyl glycerin] | – | fluidification of the formula |

From patent publication US20250025383A1, “EMOLLIENT COMPOSITION IN EMULSION FORM” (PIERRE FABRE MEDICAMENT, priority 2018, published 2025)
